T1: D3dgpA (human intestinal bacterium PUE, UniProt A0A3Q9WWX8)
T1 construct: gene dgpA; full length, 367 residues; His6-tag; pET-duet 1 (EcoRI/SalI), E. coli BL21 (DE3), Ni-NTA; about 45 kD; hexamer in solution; co-purifies with NAD(H)
T1 sequence (A0A3Q9WWX8 1-367): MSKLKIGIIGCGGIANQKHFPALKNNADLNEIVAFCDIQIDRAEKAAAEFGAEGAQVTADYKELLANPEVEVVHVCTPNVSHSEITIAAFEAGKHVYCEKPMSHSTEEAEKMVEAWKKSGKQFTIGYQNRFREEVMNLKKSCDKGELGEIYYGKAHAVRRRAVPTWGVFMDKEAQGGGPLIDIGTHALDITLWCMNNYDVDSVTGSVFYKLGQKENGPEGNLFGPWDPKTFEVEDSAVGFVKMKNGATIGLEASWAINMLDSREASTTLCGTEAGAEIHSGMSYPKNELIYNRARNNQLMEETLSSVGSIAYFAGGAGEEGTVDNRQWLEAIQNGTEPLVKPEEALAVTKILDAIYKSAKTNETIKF

B1: D3dgpA (human intestinal bacterium PUE) (protein)
chain: T1 sequence (A0A3Q9WWX8 1-367)
notes: full length, 367 residues; His6-tag; pET-duet 1 (EcoRI/SalI), E. coli BL21 (DE3), Ni-NTA; about 45 kD; hexamer in solution; co-purifies with NAD(H)

What was measured:
D3dgpA [1] = target: T1, D3dgpA; experiment: HPLC analysis of nucleotide co-purified with enzyme; format: binding; settings: bound in purified enzyme as isolated
D3dgpA [2] = target: T1, D3dgpA; experiment: HPLC of […]”-oxo-puerarin formation with and without monosaccharide; format: biochemical; settings: 400 eq puerarin and methyl β-D-3-oxo-glucopyranoside, 800 eq monosaccharide to enzyme; 5 mM HEPES pH 7.5, 36.5°C, 10 min
[3] = target: D3dgpA, Gfo/Idh/MocA family glycoside oxidoreductase (dgpA cloned from Dorea sp. MRG-IFC3) (Dorea sp. MRG-IFC3); experiment: not stated; purified His6-tagged D3dgpA in solution; the method is shown only in Supplementary Figure S5
purified protein = substrate: O=c1c(-c2ccc(O)cc2)coc2c([C@@H]3O[C@H](CO)[C@@H](O)[C@H](O)[C@H]3O)c(O)ccc12; experiment: purified protein; format: biochemical, human intestinal bacterium PUE; settings: co-substrate 760 μM methyl β-D-3-oxo-glucopyranoside, 5 mM HEPES pH 7.5, 5 mM NaCl, 36.5°C

Row | Molecule | relative inhibition (D3dgpA [2]) | also measured
1 | NC(=O)c1ccc[n+]([C@@H]2O[C@H](COP(=O)(O)OP(=O)(O)OC[C@H]3O[C@@H](n4cnc5c(N)ncnc54)[C@H](O)[C@@H]3O)[C@@H](O)[C@H]2O)c1 [NAD^+] |  | HPLC analysis of nucleotide co-purified with enzyme (D3dgpA [1]): The purified D3dgpA was found to contain an almost equimolar amount of NAD(H)
2 | CO[C@@H]1O[C@H](CO)[C@@H](O)[C@H](O)[C@H]1O [methyl β-glucopyranoside] | decreased in the order of D-glucose > methyl ß-glucoside > methyl α-glucoside ≈ levoglucosan | 
3 | OC[C@H]1OC(O)[C@H](O)[C@@H](O)[C@@H]1O (stereo partly drawn) [D-glucose] | D-glucose exhibited the most inhibitory effects on the oxidation of puerarin | 
4 | CO[C@H]1O[C@H](CO)[C@@H](O)[C@H](O)[C@H]1O [methyl α-glucopyranoside] | decreased in the order of D-glucose > methyl ß-glucoside > methyl α-glucoside ≈ levoglucosan | 
5 | O[C@@H]1[C@@H](O)[C@@H]2OC[C@@H](O2)[C@H]1O [levoglucosan] | decreased in the order of D-glucose > methyl ß-glucoside > methyl α-glucoside ≈ levoglucosan | 
6 | D3dgpA, Gfo/Idh/MocA family glycoside oxidoreductase (dgpA cloned from Dorea sp. MRG-IFC3) (enzyme) |  | stoichiometry N [3]: 6
7 | B1 |  | Km (purified protein): 250 µM; kcat (purified protein): 32 s⁻¹
